The assay has as its system Dengue-2 (Strain New Guinea C). Briefly: Viral yield assay against Dengue-2 in Vero cells. The settings on record: Dengue virus, read-out: Activity (EC50 in μM) DENV-2. It is filed as cell-based, Dengue virus. The essentials: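 Yield reduction, Vero; MOI 0.1; compound vs DMSO; 37° C; harvest 48 h p.i.; titer on Vero; EC50 fitted. Other serotypes run the same way.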
Where [1] appears, read: DENV2, viral yield assay, Vero cells, MOI 0.1, 48 hours post infection.

Like-named read-outs stand apart in the source and are kept apart here. Bounds are passed on as bounds.

This is an account of results in US20170121344A1 (Siga Technologies, Inc., priority 2009, published 2017).

One may read the EC50 as the concentration at which the effect is half-maximal.

In the case of `Cc1ccc(NC(=O)c2sc3nc(-c4ccc(Cl)cc4)ccc3c2N)cc1C` [Compound 348, 3-amino-6-(4-chlorophenyl)-N-(3,4-dimethyl-phenyl)thieno [2,3-b]pyridine-2-carboxamide], the concentration for a half-maximal effect (EC50) under setting [1] is under 5 µM.

Consider `Nc1c(C(=O)Nc2ccc(C(=O)C(F)(F)F)cc2)sc2nc(-c3ccc(Cl)cc3)ccc12` [Compound 351, 3-amino-6-(4-chlorophenyl)-N-[4-(2,2,2-tri-fluoroacetyl)phenyl]thieno [2,3-b]pyridine-2-carboxamide], for which the EC50 under setting [1] was under 5 µM.

As to `COc1cccc(-c2ccc3c(N)c(C(=O)N(CCC(=O)O)c4ccc(OC(F)(F)F)cc4)sc3n2)c1` [Compound 354, 3-[N-[3-amino-6-(3-methoxy-phenyl)thieno[2,3-b]pyridine-2-carbonyl]-4-(tri-fluoro-methoxy)anili-no]propanoic acid], the EC50 under setting [1] is 5 to 25 µM.

`Nc1c(C(=O)N(CCC(=O)O)c2ccc(Cl)cc2)sc2nc(-c3ccc(Cl)cc3)ccc12` [Compound 355, 3-(N-[3-amino-6-(4-chloro-phenyl)thieno [2,3-b]pyridine-2-carbonyl]-4-chloro-anilino) propanoic acid]: under setting [1], the EC50 is under 5 µM.

Turning to `Nc1c(C(=O)Nc2ccc(O)cc2)sc2nc(-c3ccc(Cl)cc3)ccc12` [Compound 356, 3-amino-6-(4-chlorophenyl)-N-(4-hydroxy-phenyl) thieno [2,3-b]pyridine-2-carboxamide], the EC50 under setting [1] is 5 to 25 µM.

As for `Nc1c(C(=O)Nc2ccncc2)sc2nc(-c3cccs3)ccc12` [Compound 357, 3-amino-N-(4-pyridyl)-6-(2-thienyl)thieno [2,3-b]pyridine-2-carboxamide], the EC50 under setting [1] was under 5 µM.

For the compound `Nc1c(C(=O)Nc2nccs2)sc2nc3c(cc12)CCCCC3` [Compound 366, 3-amino-N-(thiazol-2-yl)-6,7,8,9-tetrahydro-5H-cyclohepta [b]thieno[3,2-e]pyridine-2-carboxamide], the EC50 under setting [1] was under 5 µM.

Consider `Cc1ccc2c(N)c(C(=O)Nc3cccc(C(F)(F)F)c3)sc2n1` [Compound 367, 3-amino-6-methyl-N-(3-(trifluoromethyl)phenyl)thieno[2,3-b] pyridine-2-carboxamide], for which, under setting [1], the 50% effective concentration (EC50) is under 5 µM.

For the compound `Nc1c(C(=O)Nc2cccc(C(F)(F)F)c2)sc2nc3c(cc12)CCCCCC3` [Compound 370, 3-amino-N-(3-(trifluoromethyl)phenyl)-5,6,7,8,9,10-hexahydrocycloocta[b] thieno[3,2-e]pyridine-2-carboxamide], the EC50 under setting [1] was under 5 µM.

As for `Nc1c(C(=O)Nc2ccccc2OC(F)(F)F)sc2nc3c(cc12)CCCCC3` [Compound 371, 3-amino-N-(2-(trifluoromethoxy)phenyl)-6,7,8,9-tetrahydro-5H-cyclohepta[b]thieno [3,2-e]pyridine-2-carboxamide], the EC50 under setting [1] is under 5 µM.

For the compound `Nc1c(C(=O)Nc2ccccc2C(F)(F)F)sc2nc3c(cc12)CCCCC3` [Compound 372, 3-amino-N-(2-(trifluoromethyl)phenyl)-6,7,8,9-tetrahydro-5H-cyclohepta[b]thieno [3,2-e]pyridine-2-carboxamide], the EC50 under setting [1] was under 5 µM.

Regarding `Nc1c(C(=O)Nc2cccc3ccccc23)sc2nc3c(cc12)CCCCC3` [Compound 374, 3-amino-N-(naphthalen-1-yl)-6,7,8,9-tetrahydro-5H-cyclohepta[b]thieno[3,2-e] pyridine-2-carboxamide], under setting [1], the EC50 was under 5 µM.

`N#Cc1c(N)nc2sc(C(=O)Nc3ccccc3)c(N)c2c1-c1ccco1` [Compound 375, 3,6-diamino-5-cyano-4-(2-furyl)-N-phenyl-thieno[2,3-b]pyridine-2-carboxamide]: the EC50 under setting [1] was in the range of 5 to 25 µM.

`O=C(Nc1ccc(Cl)cc1)c1sc2ncccc2c1OCc1ccc(Cl)c(Cl)c1` [Compound 376, N-(4-chlorophenyl)-3-[(3,4-dichlorophenyl)methoxy]thieno[2,3-b] pyridine-2-carboxamide]: under setting [1], the EC50 lay in the range of 5 to 25 µM.

As for `O=C(Nc1cccc(C(F)(F)F)c1)c1sc2ncccc2c1OCc1ccc(Cl)c(Cl)c1` [Compound 377, 3-[(3,4-dichlorophenyl)methoxy]-N-[3-(trifluoromethyl)phenyl]thieno[2,3-b] pyridine-2-carboxamide], the 50% effective concentration (EC50) under setting [1] is under 5 µM.

Take `O=C(Nc1ccc(OC(F)(F)F)cc1)c1sc2ncccc2c1OCc1ccc(Cl)c(Cl)c1` [Compound 378, 3-[(3,4-dichlorophenyl)methoxy]-N-[4-(trifluoromethoxy)phenyl]thieno[2,3-b] pyridine-2-carboxamide]: the EC50 under setting [1] was under 5 µM.

With `O=C(Nc1ccccc1)c1sc2ncccc2c1OCc1ccc(Cl)c(Cl)c1` [Compound 379, 3-[(3,4-dichlorophenyl)methoxy]-N-phenyl-thieno[2,3-b]pyridine-2-carboxamide], the EC50 under setting [1] is under 5 µM.

As for `O=C(Nc1cccc(Cl)c1)c1sc2ncccc2c1OCc1ccc(Cl)c(Cl)c1` [Compound 380, N-(3-chlorophenyl)-3-[(3,4-dichlorophenyl)methoxy]thieno[2,3-b] pyridine-2-carboxamide], the EC50 under setting [1] is under 5 µM.

As for `O=C(Nc1cccc(Cl)c1)c1sc2ncccc2c1O` [Compound 381, N-(3-chlorophenyl)-3-hydroxy-thieno[2,3-b]pyridine-2-carboxamide], under setting [1], the EC50 is 5 to 25 µM.

Consider `O=C(Nc1ccccc1Cl)c1sc2ncccc2c1O` [Compound 382, N-(2-chlorophenyl)-3-hydroxy-thieno[2,3-b]pyridine-2-carboxamide], for which the concentration for a half-maximal effect (EC50) under setting [1] fell in the range of 5 to 25 µM.

Take `N#Cc1c(N)nc2sc(C(=O)Nc3nc(-c4ccccc4)cs3)c(N)c2c1-c1ccco1` [Compound 383, 3,6-diamino-5-cyano-4-(2-furyl)-N-(4-phenylthiazol-2-yl)thieno[2,3-b]pyridine-2-carboxamide]: the EC50 under setting [1] is under 5 µM.

For `O=C(Nc1nccs1)c1sc2nc(N3CCOCC3)cc(-c3ccccc3)c2c1O` [Compound 384, 3-hydroxy-6-morpholino-4-phenyl-N-thiazol-2-yl-thieno[2,3-b]pyridine-2-carboxamide], under setting [1], the EC50 lay within 5 to 25 µM.

`COc1ccccc1NC(=O)c1sc2nc(N3CCOCC3)cc(-c3ccccc3)c2c1O` [Compound 385, 3-hydroxy-N-(2-methoxyphenyl)-6-morpholino-4-phenyl-thieno[2,3-b] pyridine-2-carboxamide]: the EC50 under setting [1] was in the range of 5 to 25 µM.

For the compound `Cc1c(C(=O)Nc2nccs2)sc2nc(-c3cccs3)cc(C(F)(F)F)c12` [Compound 386, 3-methyl-N-thiazol-2-yl-6-(2-thienyl)-4-(trifluoromethyl)thieno[2,3-b]pyridine-2-carboxamide], the EC50 (DENV2, Vero, 48 h) was under 5 µM.

Regarding `CC1=NN(C(=O)c2sc3nc(-c4cccs4)cc(C(F)(F)F)c3c2C)C(O)(C(F)(F)F)C1` (centres unmarked) [Compound 387, [5-hydroxy-3-methyl-5-(trifluoromethyl)-4H-pyrazol-1-yl]-[3-methyl-6-(2-thienyl)-4-(trifluoromethyl)thieno[2,3-b]pyridin-2-yl]methanone], the EC50 under setting [1] was in the range of 5 to 25 µM.

With `Cc1c(C(=O)NC(C)(C)C)sc2nc(-c3cccs3)cc(C(F)(F)F)c12` [Compound 388, N-tert-butyl-3-methyl-6-(2-thienyl)-4-(trifluoromethyl)thieno[2,3-b]pyridine-2-carboxamide], the EC50 under setting [1] is under 5 µM.

Consider `Cc1cc(C)c2c(C)c(C(=O)NCc3ccco3)sc2n1` [Compound 389, N-(2-furylmethyl)-3,4,6-trimethyl-thieno [2,3-b]pyridine-2-carboxamide], for which the EC50 under setting [1] lay in the range of 5 to 25 µM.

`CC(=O)c1cnc2sc(C(=O)N(CCc3ccccc3)Cc3cccs3)c(C)c2c1` [Compound 390, 5-acetyl-3-methyl-N-phenethyl-N-(2-thienylmethyl)thieno[2,3-b]pyridine-2-carboxamide]: the EC50 under setting [1] is under 5 µM.

Turning to `CC(=O)c1cnc2sc(C(=O)Nc3cccc(F)c3)c(C)c2c1` [Compound 391, 5-acetyl-N-(3-fluorophenyl)-3-methyl-thieno[2,3-b]pyridine-2-carboxamide], the EC50 under setting [1] was under 5 µM.

With `Cc1cc(C)c2c(C)c(C(=O)Nc3nc4ccccc4s3)sc2n1` [Compound 392, N-(1,3-benzothiazol-2-yl)-3,4,6-trimethyl-thieno[2,3-b]pyridine-2-carboxamide], the EC50 under setting [1] lay in the range of 5 to 25 µM.

As for `Cc1cc(C)c2c(C)c(C(=O)Nc3ccc(NC(=O)C4CC4)cc3)sc2n1` [Compound 393, N-[4-(cyclopropanecarbonylamino)phenyl]-3,4,6-trimethyl-thieno[2,3-b]pyridine-2-carboxamide], the EC50 under setting [1] lay in the range of 5 to 25 µM.

As for `Cc1cc(C)c2c(C)c(C(=O)NC(C)C3CC3)sc2n1` (centres unmarked) [Compound 394, N-(1-cyclopropylethyl)-3,4,6-trimethyl-thieno[2,3-b]pyridine-2-carboxamide], the EC50 under setting [1] was under 5 µM.

On to `Cc1cc(C)c2c(C)c(C(=O)NCC(C)C)sc2n1` [Compound 395, N-isobutyl-3,4,6-trimethyl-thieno[2,3-b] pyridine-2-carboxamide], for which, under setting [1], the EC50 was 5 to 25 µM.

`Cc1cc(C)c2c(C)c(C(=O)Nc3ccc4c(c3)OCCO4)sc2n1` [Compound 396, N-(2,3-dihydro-1,4-benzodioxin-6-yl)-3,4,6-trimethyl-thieno[2,3-b]pyridine-2-carboxamide]: the EC50 under setting [1] was in the range of 5 to 25 µM.

Turning to `Cc1c(C(=O)Nc2ccc(F)cc2)sc2ncc(C(=O)Nc3ccc(F)cc3)cc12` [Compound 397, N2,N5-bis(4-fluorophenyl)-3-methyl-thieno[2,3-b]pyridine-2,5-dicarboxamide], the EC50 under setting [1] is under 5 µM.

With `Cc1cc(C)c2c(C)c(C(=O)N3c4ccccc4CC3C)sc2n1` (centres unmarked) [Compound 398, (2-methylindolin-1-yl)-(3,4,6-trimethyl-thieno[2,3-b]pyridin-2-yl)methanone], the concentration giving a half-maximal response (EC50) under setting [1] is 5 to 25 µM.

Take `Cc1c(C(=O)N(C)C2CCCC(C)C2)sc2nc(C(F)(F)F)ccc12` (centres unmarked) [Compound 399, N,3-dimethyl-N-(3-methylcyclohexyl)-6-(trifluoromethyl)thieno[2,3-b]pyridine-2-carboxamide]: the EC50 under setting [1] is under 5 µM.

As for `CC(=O)c1cnc2sc(C(=O)NCc3ccc(CN(C)C)cc3)c(C)c2c1` [Compound 400], under setting [1], the EC50 was under 5 µM.
